Patent publication US20250163076A1, “SYNTHESIS OF BRUTON'S TYROSINE KINASE INHIBITORS” (JANSSEN PHARMACEUTICA NV, priority 2022, published 2025)
In brackets after ≈: the same amount, converted by molar mass. Marks after values point to notes of the source that are not given here.

Assay: Solubility of P and M forms in solvent systems and their water mixtures
Type: physicochemical
Excerpt: Moreover, this solubility difference can be tuned by changing the ratio between 1-propanol/water. Therefore, M form can be efficiently converted even starting from a 1:1 d.r. mixture.

For C=CC(=O)N[C@H]1CCC[C@H]1NC(=O)c1sc2nccc3c2c1NC(=O)N3c1cnc(CC(C)C)cc1C (single isomer, unassigned) [M form], the Solubility (1-Butanol/water (~6/94 w/w %), 10° C.) was 0.2 mg/mL (≈ 0.386 mM), the Solubility (1-Butanol/water (~6/94 w/w %), 25° C.) was 0.3 mg/mL (≈ 0.578 mM) and the Solubility (1-Butanol/water (~6/94 w/w %), 50° C.) was “immiscible”. The Solubility (1-Butanol/water (~80/20 w/w %), 10° C.) was 346.6 mg/mL (≈ 668 mM), the Solubility (1-Butanol/water (~80/20 w/w %), 25° C.) was 334.0 mg/mL (≈ 644 mM) and the Solubility (1-Butanol/water (~80/20 w/w %), 50° C.) was “immiscible”. For the same compound, the Solubility (1-Butanol, 10° C.) was 397.5* mg/mL, the Solubility (1-Butanol, 25° C.) was 266.2 mg/mL (≈ 513 mM) and the Solubility (1-Butanol, 50° C.) was 444.7 mg/mL (≈ 857 mM). The Solubility (1-Propanol/water (20/80 w/w %), 10° C.) was 4.2 mg/mL (≈ 8.1 mM), the Solubility (1-Propanol/water (20/80 w/w %), 25° C.) was 3.7 mg/mL (≈ 7.13 mM) and the Solubility (1-Propanol/water (20/80 w/w %), 50° C.) was 4.9 mg/mL (≈ 9.45 mM). It also gave a Solubility (1-Propanol/water (33/67 w/w %), 25° C.) of 39.9 mg/mL (≈ 76.9 mM), a Solubility (1-Propanol/water (33/67 w/w %), 50° C.) of 285.9 mg/mL (≈ 551 mM) and a Solubility (1-Propanol/water (50/50 w/w %), 25° C.) of 187.5 mg/mL (≈ 362 mM). The Solubility (1-Propanol/water (50/50 w/w %), 50° C.) was 276.3 mg/mL (≈ 533 mM), the Solubility (1-Propanol/water (67/33 w/w %), 10° C.) was 341.7 mg/mL (≈ 659 mM) and the Solubility (1-Propanol/water (67/33 w/w %), 25° C.) was 336.5 mg/mL (≈ 649 mM). The Solubility (1-Propanol/water (67/33 w/w %), 50° C.) was 363.3 mg/mL (≈ 700 mM), the Solubility (1-Propanol/water (80/20 w/w %), 10° C.) was 394.0 mg/mL (≈ 760 mM) and the Solubility (1-Propanol/water (80/20 w/w %), 25° C.) was 386.8 mg/mL (≈ 746 mM). The Solubility (1-Propanol/water (80/20 w/w %), 50° C.) was 394.5 mg/mL (≈ 761 mM), the Solubility (1-Propanol, 10° C.) was 500.4 mg/mL (≈ 965 mM) and the Solubility (1-Propanol, 25° C.) was 265.4 mg/mL (≈ 512 mM). For the same compound, the Solubility (2-butanol/water (~17/83 w/w %), 10° C.) was 2.5 mg/mL (≈ 4.82 mM), the Solubility (2-butanol/water (~17/83 w/w %), 25° C.) was 1.7 mg/mL (≈ 3.28 mM) and the Solubility (2-butanol/water (~17/83 w/w %), 50° C.) was 0.2 mg/mL (≈ 0.386 mM). It also gave a Solubility (Isobutanol/water (~8/92 w/w %), 10° C.) of 0.2 mg/mL (≈ 0.386 mM), a Solubility (Isobutanol/water (~8/92 w/w %), 25° C.) of 0.2 mg/mL (≈ 0.386 mM) and a Solubility (Isobutanol/water (~8/92 w/w %), 50° C.) of 0.1 mg/mL (≈ 0.193 mM). For the same compound, the Solubility (Isobutanol, 10° C.) was 272.5* mg/mL, the Solubility (Isobutanol, 25° C.) was 238.0 mg/mL (≈ 459 mM) and the Solubility (Isobutanol, 50° C.) was 389.4 mg/mL (≈ 751 mM). For the same compound, the Solubility (Isopropanol/water (~16/84 w/w %), 10° C.) was 0.6 mg/mL (≈ 1.16 mM), the Solubility (Isopropanol/water (~16/84 w/w %), 25° C.) was 0.6 mg/mL (≈ 1.16 mM) and the Solubility (Isopropanol/water (~16/84 w/w %), 50° C.) was 4.0 mg/mL (≈ 7.71 mM). It also gave a Solubility (Isopropanol/water (~28/72 w/w %), 10° C.) of 3.0 mg/mL (≈ 5.78 mM), a Solubility (Isopropanol/water (~28/72 w/w %), 25° C.) of 4.6 mg/mL (≈ 8.87 mM) and a Solubility (Isopropanol/water (~28/72 w/w %), 50° C.) of 10.0 mg/mL (≈ 19.3 mM). The Solubility (Isopropanol/water (~44/56 w/w %), 10° C.) was 31.0 mg/mL (≈ 59.8 mM), the Solubility (Isopropanol/water (~44/56 w/w %), 25° C.) was 31.0 mg/mL (≈ 59.8 mM) and the Solubility (Isopropanol/water (~44/56 w/w %), 50° C.) was greater than 200 mg/mL. For the same compound, the Solubility (Isopropanol/water (~61/39 w/w %), 10° C.) was 126.0 mg/mL (≈ 243 mM), the Solubility (Isopropanol/water (~61/39 w/w %), 25° C.) was 109.0 mg/mL (≈ 210 mM) and the Solubility (Isopropanol/water (~61/39 w/w %), 50° C.) was greater than 200 mg/mL. For the same compound, the Solubility (Propylene carbonate/water (93/7 w/w %), 10° C.) was 129.8 mg/mL (≈ 250 mM), the Solubility (Propylene carbonate/water (93/7 w/w %), 25° C.) was 123.9 mg/mL (≈ 239 mM) and the Solubility (Propylene carbonate/water (93/7 w/w %), 50° C.) was 106.5 mg/mL (≈ 205 mM). The Solubility (Propylene carbonate, 10° C.) was 163.1 mg/mL (≈ 314 mM), the Solubility (Propylene carbonate, 25° C.) was 73.7 mg/mL (≈ 142 mM) and the Solubility (Propylene carbonate, 50° C.) was 107.0* mg/mL.
